Each sequence was assayed on PC9 (assay: cell count fold change with erlotinib, miRNA mimic vs non-targeting control (log2 ratio); higher = more drug-tolerant survivors than NTC). Conditions: erlotinib 1 µM; 72 h drug + 72 h drug-free recovery; perturbation: miRNA mimic.

Sequence	cell count fold change with erlotinib
AAAAACUGUAAUUACUUUU	0.031
AAAAGCUGGGUUGAGAGGGCGA	-2.14
AAACCUGUGUUGUUCAAGAGUC	-0.0774
AAAGACAUAGGAUAGAGUCACCUC	-0.142
AAAGCGCUUCCCUUCAGAGUG	-1.78
AAAGUAGCUGUACCAUUUGC	-2.51
AAAGUGCAUCCUUUUAGAGGUU	-0.881
AAAGUGCUGCGACAUUUGAGCGU	0.0776
AAAGUGCUUCCUUUUAGAGGG	-0.225
AAAGUGCUUCCUUUUAGAGGGU	0.14
AAAGUGCUUCUCUUUGGUGGGU	0.279
AACAUAGAGGAAAUUCCACGU	-1.33
AACAUUCAACGCUGUCGGUGAGU	-3.99
AACCCGUAGAUCCGAUCUUGUG	-0.33
AACUGGCCCUCAAAGUCCCGCU	-0.145
AAGAUGUGGAAAAAUUGGAAUC	-0.304
AAGCAGCUGCCUCUGAGGC	0.0583
AAGCAUUCUUUCAUUGGUUGG	-1.49
AAGCCCUUACCCCAAAAAGCAU	-1.75
AAGGAGCUCACAGUCUAUUGAG	-1.13
AAGGAGCUUACAAUCUAGCUGGG	-0.343
AAGUGAUCUAAAGGCCUACAU	-3.48
AAGUGUGCAGGGCACUGGU	-3.4
AAUCAUACAGGGACAUCCAGUU	-1.33

Sequence	cell count fold change with erlotinib
ACAAAGUGCUUCCCUUUAGAGUGU	-0.659
ACCCUAUCAAUAUUGUCUCUGC	-3.19
ACGGAUGUUUGAGCAUGUGCUA	-2.45
ACGGGUUAGGCUCUUGGGAGCU	-2.04
ACUGCAUUAUGAGCACUUAAAG	-0.728
ACUGUAGUAUGGGCACUUCCAG	-1.17
ACUUGUAUGCUAGCUCAGGUAG	-0.236
AGACCAUGGGUUCUCAUUGU	-1.65
AGACCUGGCCCAGACCUCAGC	0.672
AGACUUCCCAUUUGAAGGUGGC	-0.166
AGAGCUUAGCUGAUUGGUGAAC	-3.36
AGAUCAGAAGGUGAUUGUGGCU	-0.11
AGCAGCAUUGUACAGGGCUAUCA	-0.458
AGCAGCAUUGUACAGGGCUAUGA	-0.577
AGCCUGGAAGCUGGAGCCUGCAGU	-0.167
AGCUGGUGUUGUGAAUCAGGCCG	-0.131
AGGACCUGCGGGACAAGAUUCUU	0.369
AGGAUGAGCAAAGAAAGUAGAUU	-2.25
AGGCAGCGGGGUGUAGUGGAUA	1.05
AGGCAGUGUAGUUAGCUGAUUGC	1.35
AGGCGGAGACUUGGGCAAUUG	-3.29
AGGGCUUAGCUGCUUGUGAGCA	-3.74
AGGGGUGCUAUCUGUGAUUGA	0.941
AGGGGUGGUGUUGGGACAGCUCCGU	-0.171

Sequence	cell count fold change with erlotinib
AGGGUGUUUCUCUCAUCUCU	-1.29
AGGUUACCCGAGCAACUUUGCAU	-0.13
AGGUUGGGAUCGGUUGCAAUGCU	-0.41
AGGUUGUCCGUGGUGAGUUCGCA	-0.399
AGUCAUUGGAGGGUUUGAGCAG	-3.38
AGUGAAUGAUGGGUUCUGACC	-3.04
AGUGCCUGAGGGAGUAAGAGCCC	-2.56
AGUUUUGCAGGUUUGCAUCCAGC	-0.535
AGUUUUGCAGGUUUGCAUUUCA	-0.889
AGUUUUGCAUAGUUGCACUACA	-2.57
AUCACAUUGCCAGGGAUUUCC	-1.61
AUCAUAGAGGAAAAUCCACGU	-3.73
AUCAUGAUGGGCUCCUCGGUGU	-3.05
AUGCUGACAUAUUUACUAGAGG	-1.82
AUGGUUCCGUCAAGCACCAUGG	-2.16
AUGUAGGGCUAAAAGCCAUGGG	-1.51
AUGUAUGUGUGCAUGUGCAUG	0.321
AUUCCUAGAAAUUGUUCAUA	0.458
AUUCUGCAUUUUUAGCAAGUUC	-0.25
CAAAGAGGAAGGUCCCAUUAC	-0.517
CAAAGCGCUCCCCUUUAGAGGU	-0.185
CAAAGCGCUUCCCUUUGGAGC	-0.111
CAACCUGGAGGACUCCAUGCUG	-0.199
CAACGGAAUCCCAAAAGCAGCUG	-1.27

Sequence	cell count fold change with erlotinib
CAAGCUCGUGUCUGUGGGUCCG	-1.13
CACACACUGCAAUUACUUUUGC	-3.13
CAGCAGCAAUUCAUGUUUUGAA	-3.25
CAGGGAGGUGAAUGUGAU	1.99
CAGUGCAAUAGUAUUGUCAAAGC	-2.72
CAGUGCAAUGAUAUUGUCAAAGC	-2.68
CAGUGCAAUGAUGAAAGGGCAU	-2.17
CAGUGCAAUGUUAAAAGGGCAU	-3.02
CAGUUAUCACAGUGCUGAUGCU	-1.92
CAUCUUACCGGACAGUGCUGGA	-0.519
CAUCUUACUGGGCAGCAUUGGA	-2.32
CAUCUUCCAGUACAGUGUUGGA	0.0817
CCAGUAUUAACUGUGCUGCUGA	-1.92
CCCCCACAACCGCGCUUGACUAGCU	-0.523
CCUCUGAAAUUCAGUUCUUCAG	-0.736
CCUCUGGGCCCUUCCUCCAG	0.0835
CGAAAACAGCAAUUACCUUUGC	-2.67
CGGGGCAGCUCAGUACAGGAU	0.97
CGGGUCGGAGUUAGCUCAAGCGG	-0.802
CGUGUAUUUGACAAGCUGAGUU	-5.21
CUACAAAGGGAAGCACUUUCUC	-2.75
CUAGUGAGGGACAGAACCAGGAUUC	-2.96
CUCAGUAGCCAGUGUAGAUCCU	-4.13
CUCCAGAGGGAAGUACUUUCU	-1.13

Sequence	cell count fold change with erlotinib
CUCUAGAGGGAAGCACUUUCUC	-0.525
CUCUAGAGGGAAGCGCUUUCUG	-1.78
CUCUCACCACUGCCCUCCCACAG	-1.11
CUCUUGAGGGAAGCACUUUCUGU	-1.33
CUGAAGUGAUGUGUAACUGAUCAG	-3.44
CUGCAAAGGGAAGCCCUUUC	-3.43
CUGGAGAUAUGGAAGAGCUGUGU	-0.316
CUGGUUUCACAUGGUGGCUUAG	-2.28
CUUAUGCAAGAUUCCCUUCUAC	-1.68
GAAAGCGCUUCCCUUUGCUGGA	-0.859
GAAAGCGCUUCUCUUUAGAGG	-0.525
GAAAGUGCUUCCUUUUAGAGGC	-0.077
GAAGGCGCUUCCCUUUAGAGCG	-2.22
GAAGUGCUUCGAUUUUGGGGUGU	-0.122
GAGUGCCUUCUUUUGGAGCGUU	-4.05
GAUGAGCUCAUUGUAAUAUGAG	-2.97
GAUUAGGGUGCUUAGCUGUUAA	-2.53
GAUUGCUCUGCGUGCGGAAUCGAC	-1.68
GCAUGGGUGGUUCAGUGG	0.259
GGGCGACAAAGCAAGACUCUUUCUU	-2.38
GGGGAGCUGUGGAAGCAGUA	-2.06
GGUGCAGUGCUGCAUCUCUGGU	-1.52
GGUUUGGUCCUAGCCUUUCUA	0.113
GUAGAUUCUCCUUCUAUGAGUA	-1.33

Sequence	cell count fold change with erlotinib
GUGAAUUACCGAAGGGCCAUAA	-2.07
GUGAGGACUCGGGAGGUGG	-3.05
GUGAGGGCAUGCAGGCCUGGAUGGGG	-0.605
GUGAGUCUCUAAGAAAAGAGGA	-1.43
GUGCAUUGCUGUUGCAUUGC	-2.3
GUGGCUGCACUCACUUCCUUC	-0.272
GUGGGUACGGCCCAGUGGGGGG	0.186
GUGUGCGGAAAUGCUUCUGCUA	-2.43
GUUGGAGGAUGAAAGUACGGAGUGAU	-2.24
UAAAGAGCCCUGUGGAGACA	-1.03
UAACUGGUUGAACAACUGAACC	-0.919
UAAGGCACGCGGUGAAUGCC	0.453
UAAGGUGCAUCUAGUGCAGAUAG	-4.51
UAAGGUGCAUCUAGUGCAGUUAG	-4.47
UAAGUGCUUCCAUGCUU	-0.506
UAAGUGCUUCCAUGUUUCAGUGG	-0.141
UAAGUGCUUCCAUGUUUGAGUGU	-0.491
UAAGUGCUUCCAUGUUUUGGUGA	-1.35
UACCCAGAGCAUGCAGUGUGAA	-2.53
UACGUCAUCGUUGUCAUCGUCA	-0.419
UACUCAGGAGAGUGGCAAUCAC	-0.848
UACUUGGAAAGGCAUCAGUUG	-0.495
UAGAGUUACACCCUGGGAGUUA	-3.48

Source: the supplement of paper PMC4976141
